Literature values in patent US12377118B2, “Nanoparticle constructs for systemic co-delivery of anti-tumor agents” (CASE WESTERN RESERVE UNIVERSITY, priority 2019, dated 2025).

System: 4T1 orthotopic mammary tumor
Conditions: i.t.

Compound: Nc1nc2c(ncn2[C@@H]2O[C@@H]3COP(=O)(O)O[C@H]4[C@@H](O)[C@H](n5cnc6c(=O)[nH]c(N)nc65)O[C@@H]4COP(=O)(O)O[C@H]3[C@H]2O)c(=O)[nH]1 [free cdGMP, cyclic diguanylate monophosphate]
- dose needed to regress early 4T1 primary tumors: up to 50 μg
